Test system: tumor cells A549
Assay: MTS proliferation test of tumor cells A549
Format: cell-based
Settings: A549, 0-3.2 μM, 1.5 h exposure, then 48 h culture
Procedure: Plating the cultured tumor cells A549 in 96-well cell culture plates (100 μL, 5×10^4 cell/well), adding pure Adriamycin or samples with predetermined concentrations (0, 0.1 μM, 0.2 μM, 0.4 μM, 0.8 μM, 1.6 μM, 3.2 μM) into the wells respectively, culturing in a cell incubator for 1.5 h, centrifuging, removing the cell culture medium in the supernatant, adding fresh culture medium to continue culturing for 48 h, then testing the proliferation rate of the cells using a MTS reagent.

## COc1cccc2c1C(=O)c1c(O)c3c(c(O)c1C2=O)C[C@@](O)(C(=O)CO)C[C@@H]3O[C@H]1C[C@H](N)[C@H](O)[C@H](C)O1 [Adriamycin]
  inhibitory effect against tumor cells as the concentration increases (proliferation rate, MTS): increases gradually

Source: patent US10563205B2, “Nucleic acid aptamer AS1411 modified DNA tetrahedron and preparation method thereof” (Sichuan University, priority 2016, dated 2020)
